Here are results for two compounds from US20220062250A1, “COMBINATION OF A SK2 INHIBITOR AND AN INHIBITOR OF A CHECKPOINT PATHWAY, USES AND PHARMACEUTICAL COMPOSITIONS THEREOF” (Apogee Biotechnology Corporation, priority 2019, published 2022).

Series [1] concerns Neuro-2a. Description: Surface expression of calreticulin by flow cytometry, Neuro-2a. The format is cell-based, murine. The note with it: Neuro-2a (Neuroblastoma); 40 μM ABC294640, 24 hours; relative to DMSO control = 1.0; logarithmic scale. As for the experimental part:
(§1) One indicator that tumor cells are undergoing immunogenic cell death (ICD) is increased expression of calreticulin on the surface of the cells. Calreticulin is normally expressed in the endoplasmic reticulum (ER) of cells; however, when cells are treated with an agent that promotes ER stress, calreticulin expression can be observed on the external surface of the cells. Promotion of ER stress is a typical mechanism for inducing ICD, and therefore measuring the surface expression of calreticulin is an established method for determining if a compound causes ICD. The effects of ABC294640, an inhibitor of sphingosine kinase-2, on the surface expression of calreticulin in several different types of tumor cells were examined. […] The cells were then incubated with a fluorescently labeled antibody that selectively binds to calreticulin, washed and then analyzed by flow cytometry to quantify the amount of surface calreticulin on many individual cells. The resulting data is analyzed by determining the geometric mean of the fluorescence intensity for the population of cells using algorithms well known in the field of flow cytometry. […] The geometric mean of the fluorescence intensity for cell samples treated with DMSO was expressed as 1.0 and the data for cell samples treated with ABC294640 were expressed relative to the DMSO control. […]
Background: In flow cytometry, cells or beads pass a laser one at a time.

Series [2] has as its system B16-F10. Description: Surface expression of calreticulin by flow cytometry, B16-F10. To be noted: B16-F10 (Melanoma); 40 μM ABC294640, 24 hours; relative to DMSO control = 1.0; logarithmic scale. The format is cell-based, murine. As for the experimental part:
as §1

Series [3] has as its system LLC tumors. The series is described as follows: LLC tumor model, ABC294640 in combination with anti-CTLA4 antibody (Example 9). The series is classed as in vivo, mice. As to the method:
The combined effects of treating tumor-bearing mice with ABC294640 and anti-CTLA41 antibody were examined in the LLC tumor model. Anti-mouse CTLA-4 (catalog number BE0131) antibody was purchased from BioXCell (West Lebanon, N.H.). Mice were injected with 1,000,000 LLC cells suspended in PBS into the right hind flank subcutaneously on Day 0 of the experiment. Mice were randomized On Day 3 of the experiment into the following four treatment groups (n=5/group): Control (vehicle only); ABC294640 alone; anti-CTLA4 antibody alone; and ABC294640 in combination with anti-CTLA4 antibody. ABC294640 was suspended in vehicle (46.7% PEG, 46.7% saline and 6.6% ethanol) and dosed by oral gavage at 50 mg/kg 5 days/week (i.e. days 3-7, 10-14, 17-21, etc.) until sacrifice. Anti-CTLA4 antibody was suspended in dilution buffer (BioXCell, catalog number IP0070) and administered by intraperitoneal (i.p.) injection at a dose of 200 μg/mouse on Days 3, 6, 10, 13, 17 and 20. The combination treatment group mice received antibody and ABC294640 treatments concomitantly on days when antibody was scheduled. Control group mice received oral vehicle and/or sterile PBS i.p. on all days that treated mice received either ABC294640 or antibody. Tumors were measured with digital calipers three times per week and volumes were calculated using the formula, (L×W^2)/2. Mice were euthanized when tumor volumes reached ≥3,000 mm^3. […] Tumors in the Control mice grew progressively after a lag of approximately 7 days. On Day 21, the average tumor volumes for the Control, ABC294640 alone, anti-CTLA4 antibody alone, and combination treatment groups were 4622±548, 3197±914, 3029±675 and 1274±336 mm^3, respectively. […] As directed by the IACUC protocol, each mouse was sacrificed when its tumor volume reached 3,000 mm^3. […] The combination of ABC294640 plus anti-CTLA4 antibody increased median survival to >26 days, and 60% of these mice survived to Day 26.

Series [4] concerns B16 tumors. The series is described as follows: B16 tumor model, ABC294640 in combination with anti-PD-L1 antibody (Example 10). The format is in vivo, mice. To be noted: B16 tumors ≥300 mm^3 at randomization (Day 1); ABC294640 50 mg/kg oral gavage 5 days/week; anti-PD-L1 antibody 200 μg/mouse i.p. Days 1, 3, 5 and 7; Vehicle 8.5. As for the experimental part: The combined effects of treating tumor-bearing mice with ABC294640 and anti-PD-L1 antibody were examined in the B16 tumor model. Anti-mouse PD-L1 (catalog number BE0101) antibody was purchased from BioXCell (West Lebanon, N.H.). Mice were injected with 100,000 B16 cells suspended in PBS into the right hind flank subcutaneously on Day 0 of the experiment. When the tumor reached a volume of ≥300 mm^3, mice were randomized into the following four treatment groups (n=5-6/group): Control (vehicle only); ABC294640 alone; anti-PD-L1 antibody alone; and ABC294640 in combination with anti-PD-L1 antibody. The day of randomization is noted as Day 1 of the experiment for each mouse. ABC294640 was suspended in vehicle (46.7% PEG, 46.7% saline and 6.6% ethanol) and dosed by oral gavage at 50 mg/kg 5 days/week until sacrifice. Anti-PD-L1 antibody was suspended in dilution buffer (BioXCell, catalog number IP0070) and administered by intraperitoneal (i.p.) injection at a dose of 200 μg/mouse on Days 1, 3, 5 and 7. The combination treatment group mice received antibody and ABC294640 treatments concomitantly on days when antibody was scheduled. Control group mice received oral vehicle and/or sterile PBS i.p. on all days that treated mice received either ABC294640 or antibody. Tumors were measured with digital calipers three times per week and volumes were calculated using the formula, (L×W^2)/2. […]

In series [5] the test system is E0771. Description: Surface expression of calreticulin by flow cytometry, E0771. The note with it: E0771 (Breast); 40 μM ABC294640, 24 hours; relative to DMSO control = 1.0; logarithmic scale. The format is cell-based. As for the experimental part:
as §1

Series [6] relates to B16 tumors. Description: B16 tumor model, ABC294640 in combination with anti-PD-1 antibody (Example 8). The format is in vivo, C57BL/6 mice. As to the method:
Agents that induce ICD may enhance the antitumor activity of checkpoint antibodies. […] Anti-mouse PD-1 (Catalog number BE0146) antibody was purchased from BioXCell (West Lebanon, N.H.). C57BL/6 mice were injected with 100,000 B16 cells suspended in PBS into the right hind flank subcutaneously on Day 0 of the experiment. Mice were randomized on Day 3 of the experiment into the following four treatment groups (n=10/group): Control (vehicle only); ABC294640 alone; anti-PD-1 antibody alone; and ABC294640 in combination with anti-PD-1 antibody. ABC294640 was suspended in vehicle (46.7% PEG, 46.7% saline and 6.6% ethanol) and dosed by oral gavage at 50 mg/kg 5 days/week (i.e. days 3-7, 10-14, 17-21, etc.) until sacrifice. Anti-PD-1 antibody was suspended in sterile PBS, and administered by intraperitoneal (i.p.) injection at a dose of 200 μg/mouse on Days 3, 6 and 10. The combination treatment group mice received antibody and ABC294640 treatments concomitantly on days when antibody was scheduled. Control group mice received oral vehicle and/or sterile PBS i.p. on all days that treated mice received either ABC294640 or antibody. Tumors were measured with digital calipers three times per week and volumes were calculated using the formula, (L×W^2)/2. Mice were euthanized when tumor volumes reached ≥3,000 mm^3. […] Tumors in the Control mice grew very aggressively after a lag of approximately 10 days. On Day 19, the average tumor volumes for the Control, ABC294640 alone, anti-PD-1 antibody alone, and combination treatment groups were 1702±373, 892±364, 783±265 and 190±114 mm^3, respectively. […] As directed by the IACUC protocol, each mouse was sacrificed when its tumor volume reached 3,000 mm^3. […] Treatment with ABC294640 alone provided a median survival of 24 days and 30% of the mice were alive on Day 56 when the experiment was terminated (p=0.009).

In series [7] the test system is TRAMP-C2. The series is described as follows: Surface expression of calreticulin by flow cytometry, TRAMP-C2. To be noted: TRAMP-C2 (Prostate); 40 μM ABC294640, 24 hours; relative to DMSO control = 1.0; logarithmic scale. The format is cell-based. As for the experimental part: as §1
Series [8] concerns Lewis Lung carcinoma. The series is described as follows: Surface expression of calreticulin by flow cytometry, Lewis Lung carcinoma. To be noted: 40 μM ABC294640, 24 hours, relative to DMSO control = 1.0, logarithmic scale. The series is classed as cell-based, murine. As to the method: as §1
Series [9] relates to PAN02. The series is described as follows: Surface expression of calreticulin by flow cytometry, PAN02. To be noted: PAN02 (Pancreas); 40 μM ABC294640, 24 hours; relative to DMSO control = 1.0; logarithmic scale (2.0 = 10-fold increase). The format is cell-based. As to the method:
as §1

For series [10] the following is noted: given intravenously every 2 weeks; cited from earlier work.

`O=C(NCc1ccncc1)C12CC3CC(C1)CC(c1ccc(Cl)cc1)(C3)C2` [ABC294640, 3-(4-chlorophenyl)-adamantane-1-carboxylic acid (pyridin-4-ylmethyl)amide]: the “Surface calreticulin expression (Geometric mean of fluorescence intensity)” value in series [1] is recorded as 3.0; in [2], 2.7; in [5] it was 1.46; in series [7], 3.64; in series [8] it was 3.0; in [9], 2.31. The median survival in series [3] (LLC tumor-bearing mice, sacrificed at tumor volume 3,000 mm^3, Control 19 days) came to 22 days; in series [4] it was 10 days; in series [6] (B16 tumor-bearing mice, sacrificed at tumor volume 3,000 mm^3, Control 21 days) it was 24 days. Moreover, the average tumor volume in series [3] (LLC tumors, Day 21, ABC294640 50 mg/kg oral gavage 5 days/week, anti-CTLA4 antibody 200 μg/mouse i.p. Days 3, 6, 10, 13, 17 and 20, Control 4622±548) was 3197±914 mm^3; in [6] (B16 tumors, Day 19, ABC294640 50 mg/kg oral gavage 5 days/week, anti-PD-1 antibody 200 μg/mouse i.p. Days 3, 6 and 10, Control 1702±373), 892±364 mm^3. In addition, in series [3] (in words), the “growth of LLC lung tumors (FIG. 8)” value is listed as “partially inhibited”. Moreover, the “survival of mice bearing LLC tumors (FIG. 9)” value in series [3] (in words) is “slightly prolonged”. Also, in series [6] (B16 tumor-bearing mice, experiment terminated Day 56, all Control animals sacrificed by Day 29), the “mice alive on Day 56” value is 30%. Also, the “growth of B16 melanoma tumors (FIG. 6)” value in [6] (in words) was “partially inhibited”. Besides, the “survival of mice bearing B16 melanoma tumors (FIG. 7)” value in series [6] (in words) was “slightly prolonged”.

As to nivolumab, the tolerated dose entry in [10] is recorded as “up to 10 mg/kg”.
